Patent publication US10323028B2, “1,3,4-thiadiazole compounds and their use in treating cancer” (AstraZeneca AB, priority 2015, dated 2019)
Read-outs that look alike come from different tables or passages of the source.

Legend:
NCI-H1703 cells = assay: GLS Cell Proliferation Assay (NCI-H1703 cell proliferation); type: cell-based
Excerpt: (§1) The following assays were used to measure the effects of the compounds described herein: a) GLS Enzyme Potency Assay; b) GLS Cell Potency Assay; c) GLS Cell Proliferation Assay. During the description of the assays, generally: • i. The following abbreviations have been used: CO2=Carbon dioxide; DMEM=Dulbecco's Modified Eagle Medium; DMSO=Dimethyl sulphoxide; EDTA=Ethylenediaminetetraacetic acid; EGTA=Ethylene glycol tetraacetic acid; FCS=Foetal calf serum; h=Hour(s); NBS=Non-binding surface; SDS=Sodium dodecyl sulphate; TRIS=Tris(Hydroxymethyl)aminomethane. • ii. IC50 values were calculated using a smart fitting model in Genedata.
Assay c): GLS Cell Proliferation Assay
The ability of compounds to inhibit cell growth was measured using a 384 well plate NCI-H1703 cell proliferation assay. NCI-H1703 cells were grown in phenol red free RPMI1640, 10% FCS and 2 mM glutamine and seeded at a density of 750 cells per well in 40 μl of growth medium into clear-bottom 384 well assay plates (Corning product code 3712) and incubated for 24 h at 37° C., 5% CO2. […] DMSO concentration was maintained at 0.3% by back filling with DMSO solution. Plates were incubated for 5 days at 37° C., 5% CO2, Sytox Green and Saponin added to final concentration of 2 μM and 0.25% respectively and incubated for 6 h prior to analysis. […] IC50 values were calculated by curve fitting to max inhibition of day zero growth using GeneData software analysis.

GLS1 = GLS1 (Homo sapiens (Human), UniProt O94925); assay: GLS Enzyme Potency Assay (Glutamate Oxidase/AmplexRed coupled assay); type: biochemical; settings: 6His tagged GLS protein (amino acids 63-669), recombinant; read-out: Assay a) enz IC50
Excerpt: as §1
Assay a): GLS Enzyme Potency Assay
A Glutamate Oxidase/AmplexRed coupled assay was used to measure the ability of compounds to bind to and inhibit the activity of GLS1 in vitro. […] GLS1 was diluted to 2× working concentration and incubated at room temperature to allow the tetrameric/dimeric forms to reach steady state. Assay measurements were performed in buffer comprising 50 mM TRIS pH 7.8, 100 mM NaPO4, pH 7.8, 0.001% v/v Tween20. Purified recombinant GLS1 protein was diluted in assay buffer to 12 nM and pre-incubated at room temperature for 30 minutes. […] DMSO concentration was maintained at 2% by back filling with DMSO solution. 3 μL of diluted GLS1 protein (12 nM) was then dispensed into each well using a BioRaptr automated dispenser (Beckman-Coulter) and incubated for 15 minutes at room temperature. 3 μL of 100 mM glutamine diluted in assay buffer was then added and the reaction incubated at room temperature for 60 minutes. […] An artefact version of the assay where the 6His tagged GLS protein and glutamine were replaced with assay buffer was also used to rule out non specific effects on the assay components.

[1] = target: cellular GLS activity in PC3 cells (Homo sapiens (Human), UniProt O94925); assay: GLS Cell Potency Assay (PC3 coupled assay measuring cellular glutamate depletion); type: cell-based; settings: PC3 cells, 6 h incubation, glutamate depletion; read-out: Assay b) GLS cell MOA Mean IC50
Excerpt: as §1
Assay b): GLS Cell Potency Assay
Compounds were assessed for their potential to inhibit cellular GLS activity by use of a PC3 coupled assay measuring cellular glutamate depletion. […] DMSO concentration was maintained at 0.3% by back filling with DMSO solution. PC3 cells were grown in phenol free DMEM, 10% dialyzed FCS, 2 mM glutamine and following dispersal by trypsinisation were plated at 5.6×10^3 cells per well in 40 μl of growth medium directly into the 384 well assay plates containing dispensed compound. After incubation for 6 h at 37° C., 5% CO2 growth media was aspirated and cells lysed in 15 μl of buffer containing 10 mM TRIS pH7.4, 100 mM NaCl, 1 mM EDTA, 1 mM EGTA, 1 mM NaF, 20 mM Na4P2O7, 2 mM Na3VO4, 1% Triton X-100, 10% glycerol, 0.1% SDS and 0.5% deoxycholate.

[2] = NCI-H1703 cells, 5 days; read-out: Assay c) Prolif Mean IC50
[3] = Homo sapiens, NCI-H1703, 120 h, NCI-H1703 cells, 5 days; read-out: Assay c) Prolif Mean IC50

GLS1, sequence (O94925 63-669): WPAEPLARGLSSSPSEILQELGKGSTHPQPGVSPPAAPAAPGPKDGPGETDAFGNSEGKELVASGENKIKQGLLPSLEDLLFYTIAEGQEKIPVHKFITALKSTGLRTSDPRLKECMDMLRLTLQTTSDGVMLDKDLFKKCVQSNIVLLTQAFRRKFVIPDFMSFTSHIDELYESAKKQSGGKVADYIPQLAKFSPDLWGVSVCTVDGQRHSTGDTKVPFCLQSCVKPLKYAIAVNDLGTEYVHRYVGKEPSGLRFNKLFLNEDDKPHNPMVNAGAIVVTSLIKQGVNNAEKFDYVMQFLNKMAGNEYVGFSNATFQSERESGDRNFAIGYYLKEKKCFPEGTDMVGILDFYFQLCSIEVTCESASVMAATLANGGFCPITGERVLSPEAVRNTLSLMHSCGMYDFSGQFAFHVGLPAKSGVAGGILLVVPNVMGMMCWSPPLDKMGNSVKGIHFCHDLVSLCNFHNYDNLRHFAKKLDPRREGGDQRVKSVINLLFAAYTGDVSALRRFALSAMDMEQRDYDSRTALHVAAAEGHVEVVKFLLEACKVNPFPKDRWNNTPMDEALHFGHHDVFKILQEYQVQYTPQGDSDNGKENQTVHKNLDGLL
cellular GLS activity in PC3 cells, sequence (O94925 73-669): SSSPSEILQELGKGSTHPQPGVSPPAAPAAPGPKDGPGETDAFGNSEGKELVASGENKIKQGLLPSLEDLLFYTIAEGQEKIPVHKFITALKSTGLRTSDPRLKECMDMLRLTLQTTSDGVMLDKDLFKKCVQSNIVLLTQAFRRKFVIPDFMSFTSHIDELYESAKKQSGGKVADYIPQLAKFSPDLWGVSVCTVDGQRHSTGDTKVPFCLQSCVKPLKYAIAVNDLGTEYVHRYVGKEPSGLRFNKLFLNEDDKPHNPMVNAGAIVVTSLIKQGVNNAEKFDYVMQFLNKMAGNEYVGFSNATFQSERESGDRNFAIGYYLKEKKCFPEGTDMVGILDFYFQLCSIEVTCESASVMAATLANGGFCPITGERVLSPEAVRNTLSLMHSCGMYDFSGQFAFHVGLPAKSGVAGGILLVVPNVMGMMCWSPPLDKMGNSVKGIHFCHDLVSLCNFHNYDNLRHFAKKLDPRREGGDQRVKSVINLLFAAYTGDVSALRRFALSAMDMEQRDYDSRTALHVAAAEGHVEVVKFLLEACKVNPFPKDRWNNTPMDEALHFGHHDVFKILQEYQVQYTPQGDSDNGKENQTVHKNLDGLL

| SMILES | IC50 (NCI-H1703 cells; [2]) [nM] | IC50 (GLS1) [nM] | further results |
| --- | --- | --- | --- |
| CO[C@H](C(=O)Nc1nnc(N[C@@H]2CCN(c3nccnn3)C2)s1)c1cccc(N2CC(F)C2)c1 (single isomer, unassigned) [Example 15(a)] | 11.6 | 77.6 |  |
| CO[C@H](C(=O)Nc1nnc(N[C@@H]2CCN(c3nccnn3)C2)s1)c1cccc(N2CC(F)(F)C2)c1 (single isomer, unassigned) [14(b)] | 156 | 660 |  |
| CCO[C@H](C(=O)Nc1nnc(N[C@@H]2CCN(c3cccnn3)C2)s1)c1cccc(OC(F)(F)F)c1 (single isomer, unassigned) [19(b)] | 7.59 |  |  |
| CCO[C@H](C(=O)Nc1nnc(N[C@@H]2CCN(c3cccnn3)C2)s1)c1cccc(OC(F)(F)F)c1 (single isomer, unassigned) [Example 19(a)] | 2.61 |  |  |
| CO[C@H](C(=O)Nc1nnc(N[C@@H]2CCN(c3cccnn3)C2)s1)c1ccc(F)c(N2CC(F)C2)c1 (single isomer, unassigned) [Example 8(a)] |  |  | IC50 (NCI-H1703 cells; [3]): 57.6 nM |
| COC(C(=O)Nc1nnc(N[C@@H]2CCN(c3ccc(C)nn3)C2)s1)c1cccc(N2CC(F)(F)C2)c1 (stereo partly drawn) [Example 40, 2-[3-(3,3-difluoroazetidin-1-yl)phenyl]-2-methoxy-N-[5-[[(3R)-1-(6-methylpyridazin-3-yl)pyrrolidin-3-yl]amino]-1,3,4-thiadiazol-2-yl]acetamide] | 82.5 | 311 |  |
| CO[C@H](C(=O)Nc1nnc(N[C@@H]2CCN(c3cccnn3)C2)s1)c1ccc(F)c(OC(F)(F)F)c1 (single isomer, unassigned) [20(b)] | 2.65 |  |  |
| COC[C@H](C(=O)Nc1nnc(N[C@@H]2CCN(c3cccnn3)C2)s1)c1cccc(OC)c1 (single isomer, unassigned) [Example 5(a)] | 11.7 |  |  |
| COc1cc(OC)cc([C@H](OC)C(=O)Nc2nnc(N[C@@H]3CCN(c4nccnn4)C3)s2)c1 (single isomer, unassigned) [Example 16(a)] |  | 25.2 | IC50 (NCI-H1703 cells; [3]): 3.49 nM |
| COc1cc(OC(F)(F)F)cc([C@H](OC)C(=O)Nc2nnc(N[C@@H]3CCN(c4cccnn4)C3)s2)c1 (single isomer, unassigned) [Example 11(a)] |  |  | IC50 (NCI-H1703 cells; [3]): 1.7 nM |
| CCO[C@H](C(=O)Nc1nnc(N[C@@H]2CCN(c3cccnn3)C2)s1)c1cccc(N2CC(OC)C2)c1 [Example 22(a), (2S)-2-ethoxy-2-[3-(3-methoxyazetidin-1-yl)phenyl]-N-[5-[[(3R)-1-pyridazin-3-ylpyrrolidin-3-yl]amino]-1,3,4-thiadiazol-2-yl]acetamide] |  |  | IC50 (NCI-H1703 cells; [3]): 5.35 nM |
| CO[C@H](C(=O)Nc1nnc(N[C@@H]2CCN(c3nccnn3)C2)s1)c1cccc(N2CC(F)(F)C2)c1 (single isomer, unassigned) [Example 14(a)] | 5.89 | 91.5 |  |
| COC[C@H](C(=O)Nc1nnc(N[C@@H]2CCN(c3ccc(C)nn3)C2)s1)c1ccccc1 (single isomer, unassigned) [Example 45(a)] |  |  | IC50 [1]: 147 nM |
| COCC(C(=O)Nc1nnc(N[C@@H]2CCN(c3ccc(C)nn3)C2)s1)c1ccccc1 (single isomer, unassigned) [Example 45(a)] |  | 1600 |  |
| COC1CN(c2cccc([C@H](OC)C(=O)Nc3nnc(N[C@@H]4CCN(c5nccnn5)C4)s3)c2)C1 (single isomer, unassigned) [13(b)] | 497 |  |  |
| COc1cc(OC)cc([C@H](OC)C(=O)Nc2nnc(N[C@@H]3CCN(c4nccnn4)C3)s2)c1 (single isomer, unassigned) [16(b)] |  | 689 |  |
| CCO[C@H](C(=O)Nc1nnc(N[C@@H]2CCN(c3cccnn3)C2)s1)c1cccc(OC(F)F)c1 (single isomer, unassigned) [17(b)] | 34.9 |  |  |
| CO[C@H](C(=O)Nc1nnc(N[C@@H]2CCN(c3nccnn3)C2)s1)c1cccc(N2CC(F)C2)c1 (single isomer, unassigned) [15(b)] | 376 | 1310 |  |
| CCO[C@H](C(=O)Nc1nnc(N[C@@H]2CCN(c3cccnn3)C2)s1)c1cccc(OC(F)F)c1 (single isomer, unassigned) [Example 17(a)] | 1.56 |  |  |
| CO[C@H](C(=O)Nc1nnc(N[C@@H]2CCN(c3cccnn3)C2)s1)c1ccc(F)c(OC(F)(F)F)c1 (single isomer, unassigned) [Example 20(a)] | 6.57 |  |  |
| COC(C(=O)Nc1nnc(N[C@@H]2CCN(c3ccc(F)nn3)C2)s1)c1cccc(N2CC(F)(F)C2)c1 (stereo partly drawn) [Example 41, 2-[3-(3,3-difluoroazetidin-1-yl)phenyl]-N-[5-[[(3R)-1-(6-fluoropyridazin-3-yl)pyrrolidin-3-yl]amino]-1,3,4-thiadiazol-2-yl]-2-methoxy-acetamide] | 1.46 |  |  |
| COc1cc([C@H](OC)C(=O)Nc2nnc(N[C@@H]3CCN(c4cccnn4)C3)s2)cc(N2CC(F)C2)c1 (single isomer, unassigned) [10(b)] |  |  | IC50 (NCI-H1703 cells; [3]): 43.4 nM |
| COC1CN(c2cccc([C@H](OC)C(=O)Nc3nnc(N[C@@H]4CCN(c5nccnn5)C4)s3)c2)C1 (single isomer, unassigned) [Example 13(a)] |  | 75.1 |  |

Now from value to molecule, other results behind:

| IC50 (NCI-H1703 cells; [2]) [nM] | SMILES | IC50 (GLS1) [nM] | further results |
| --- | --- | --- | --- |
| 1.04 | COc1cc(OC(F)(F)F)cc([C@H](OC)C(=O)Nc2nnc(N[C@@H]3CCN(c4cccnn4)C3)s2)c1 (single isomer, unassigned) [11(b)] |  |  |
| 122 | COC1CN(c2cccc([C@H](OC)C(=O)Nc3nnc(N[C@@H]4CCN(c5ccc(F)nn5)C4)s3)c2)C1 (single isomer, unassigned) [9(b)] |  |  |
| 4.9 | COC1CN(c2cccc([C@H](OC)C(=O)Nc3nnc(N[C@@H]4CCN(c5ccc(F)nn5)C4)s3)c2)C1 (single isomer, unassigned) [Example 9(a)] |  |  |
| 2.2 | CCO[C@H](C(=O)Nc1nnc(N[C@@H]2CCN(c3cccnn3)C2)s1)c1cc(OC)cc(OC)c1 (single isomer, unassigned) [Example 6(a)] |  |  |
| 98.7 | CCOC(C(=O)Nc1nnc(N[C@@H]2CCN(c3cccnn3)C2)s1)c1cccc(N2CC(F)C2)c1 (single isomer, unassigned) [Example 32] | 188 |  |
| 2.5 | CO[C@H](C(=O)Nc1nnc(N[C@@H]2CCN(c3cccnn3)C2)s1)c1cccc(N2CC(F)(F)C2)c1 (single isomer, unassigned) [Example 2(a)] |  |  |
| 32.9 | COC1CN(c2cccc([C@H](OC)C(=O)Nc3nnc(N[C@@H]4CCN(c5ccc(C)nn5)C4)s3)c2)C1 (single isomer, unassigned) [Example 12(a)] |  |  |
| 28.6 | CO[C@H](C(=O)Nc1nnc(N[C@@H]2CCN(c3cccnn3)C2)s1)c1cccc(N2CC(F)(F)C2)c1 (single isomer, unassigned) [2(b)] |  |  |
| 5.35 | CCOC(C(=O)Nc1nnc(N[C@@H]2CCN(c3cccnn3)C2)s1)c1cccc(N2CC(OC)C2)c1 (stereo partly drawn) [Example 33, 2-ethoxy-2-[3-(3-methoxyazetidin-1-yl)phenyl]-N-[5-[[(3R)-1-pyridazin-3-ylpyrrolidin-3-yl]amino]-1,3,4-thiadiazol-2-yl]acetamide] |  |  |
| 303 | COC(C(=O)Nc1nnc(N[C@@H]2CCN(c3cccnn3)C2)s1)c1ccc(F)c(N2CC(F)(F)C2)c1 (stereo partly drawn) [Example 38, 2-[3-(3,3-difluoroazetidin-1-yl)-4-fluoro-phenyl]-2-methoxy-N-[5-[[(3R)-1-pyridazin-3-ylpyrrolidin-3-yl]amino]-1,3,4-thiadiazol-2-yl]acetamide] | 190 |  |
| 524 | COC1CN(c2cccc([C@H](OC)C(=O)Nc3nnc(N[C@@H]4CCN(c5ccc(C)nn5)C4)s3)c2)C1 (single isomer, unassigned) [12(b)] |  |  |
| 120 | COC[C@H](C(=O)Nc1nnc(N[C@@H]2CCN(c3cccnn3)C2)s1)c1cccc(OC)c1 (single isomer, unassigned) [5(b)] |  |  |
